According to patent US10968203B2, “Pyrimidinyl-pyridyloxy-naphthyl compounds and methods of treating IRE1-related diseases and disorders” (Genentech, Inc., priority 2017, dated 2021):
Where a name gives a salt, the structure may show the parent alone.

System: XBP1s-luc 293 LUC
Experiment: cellular PD assay, XBP1s-LUC reporter (Example 903)
Format: cell-based
Conditions: Table 1; read-out: XBP1s-luc 293 LUC (IC50)
In short: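 A luciferase fusion, in frame and expressed only when the XBP1 transcript is spliced, served as the readout of cellular IRE1α activity in an XBP1-Luc reporter line.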

Row | SMILES | IC50
1 | Cc1ccc2c(NC[C@H]3CCOC3)cccc2c1Oc1ncccc1-c1ccnc(N[C@H]2CCCNC2)n1 (single isomer, unassigned) [Example 352] | 499 nM
2 | Cc1ccc2c(Nc3ccn(C)n3)c(F)ccc2c1Oc1ncccc1-c1ccnc(N[C@H]2CCCNC2)n1 [Example 359, (S)-4-(2-((6-Fluoro-2-methyl-5-((1-methyl-1H-pyrazol-3-yl)amino)naphthalen-1-yl)oxy)pyridin-3-yl)-N-(piperidin-3-yl)pyrimidin-2-amine] | 438 nM
3 | Cc1ccc2c(NCc3ncsc3C)cccc2c1Oc1ncccc1-c1ccnc(N[C@H]2CCCNC2)n1 [Example 346, (S)-4-(2-((2-Methyl-5-(((5-methylthiazol-4-yl)methyl)amino)naphthalen-1-yl)oxy)pyridin-3-yl)-N-(piperidin-3-yl)pyrimidin-2-amine] | 136 nM
4 | Cc1ccc2c(NC(=O)C3CC34CCCCC4)cccc2c1Oc1ncccc1-c1ccnc(N[C@H]2CCCNC2)n1 (mixture of isomers) [Example 281, N-(6-Methyl-5-((3-(2-(((S)-piperidin-3-yl)amino)pyrimidin-4-yl)pyridin-2-yl)oxy)naphthalen-1-yl)spiro[2.5]octane-1-carboxamide] | 89 nM
5 | Cc1ccc2c(NC(=O)[C@H]3CCC(C)C3)cccc2c1Oc1ncccc1-c1ccnc(N[C@H]2CCCNC2)n1 (single isomer, unassigned) [Example 278] | 313 nM
6 | Cc1ccc2c(NS(=O)(=O)Cc3ccccn3)cccc2c1Oc1ncccc1-c1ccnc(N[C@H]2CCCNC2)n1 [Example 126, (S)—N-(6-Methyl-5-((3-(2-(piperidin-3-ylamino)pyrimidin-4-yl)pyridin-2-yl)oxy)naphthalen-1-yl)-1-(pyridin-2-yl)methanesulfonamide hydrochloride] | 54 nM
7 | Cc1ccc2c(NS(=O)(=O)Cc3ccccc3)cccc2c1Oc1ncccc1-c1ccnc(N[C@H]2CCCNC2)n1 [Example 112, (S)—N-(6-Methyl-5-((3-(2-(piperidin-3-ylamino)pyrimidin-4-yl)pyridin-2-yl)oxy)naphthalen-1-yl)-1-phenylmethanesulfonamide hydrochloride] | 21 nM
8 | COC(C)CS(=O)(=O)Nc1cccc2c(Oc3ncccc3-c3ccnc(N[C@H]4CCCNC4)n3)c(C)ccc12 (stereo partly drawn) [Example 138, 2-Methoxy-N-(6-methyl-5-((3-(2-((S)-piperidin-3-ylamino)pyrimidin-4-yl)pyridin-2-yl)oxy)naphthalen-1-yl)propane-1-sulfonamide] | 388 nM
9 | Cc1cnn(-c2cccc3c(Oc4ncccc4-c4ccnc(N[C@H]5CCCNC5)n4)c(C)ccc23)c1 [Example 207, (S)-4-(2-((2-Methyl-5-(4-methyl-1H-pyrazol-1-yl)naphthalen-1-yl)oxy)pyridin-3-yl)-N-(piperidin-3-yl)pyrimidin-2-amine] | 251 nM
10 | Cc1ccc2c(NCCC(C)(C)C#N)cccc2c1Oc1ncccc1-c1ccnc(N[C@H]2CCCNC2)n1 [Example 347, (S)-2,2-Dimethyl-4-((6-methyl-5-((3-(2-(piperidin-3-ylamino)pyrimidin-4-yl)pyridin-2-yl)oxy)naphthalen-1-yl)amino)butanenitrile] | 48 nM
11 | Cc1ccc2c(NC[C@H](C)O)cccc2c1Oc1ncccc1-c1ccnc(N[C@H]2CCCNC2)n1 [Example 301, (S)-1-((6-Methyl-5-((3-(2-((S)-piperidin-3-ylamino)pyrimidin-4-yl)pyridin-2-yl)oxy)naphthalen-1-yl)amino)propan-2-ol] | 424 nM
12 | Cc1ccc2c(NC(=O)[C@H]3CC34CCC4)cccc2c1Oc1ncccc1-c1ccnc(N[C@H]2CCCNC2)n1 (single isomer, unassigned) [Example 339] | 137 nM
13 | Cc1ccc2c(NS(=O)(=O)CC(C)(C)C)c(F)ccc2c1Oc1ncccc1-c1ccnc(N[C@H]2CCCNC2)n1 [Example 350, (S)—N-(2-Fluoro-6-methyl-5-((3-(2-(piperidin-3-ylamino)pyrimidin-4-yl)pyridin-2-yl)oxy)naphthalen-1-yl)-2,2-dimethylpropane-1-sulfonamide] | 37.4 nM
14 | CCCS(=O)(=O)Nc1cccc2c(Oc3ncccc3-c3ccnc(N[C@H]4CCCNC4)n3)c(Cl)ccc12 [Example 181] | 185 nM
15 | Cc1cc(CNc2cccc3c(Oc4ncccc4-c4ccnc(N[C@H]5CCCNC5)n4)c(C)ccc23)no1 [Example 280, (S)-4-(2-((2-Methyl-5-(((5-methylisoxazol-3-yl)methyl)amino)naphthalen-1-yl)oxy)pyridin-3-yl)-N-(piperidin-3-yl)pyrimidin-2-amine] | 134 nM

Same assay, conditions: Table 2; read-out: XBP1s-luc 293 LUC (IC50)

Row | SMILES | IC50
16 | Cc1ccc2c(NC(=O)/C=C/C(F)(F)F)cccc2c1Oc1ncccc1-c1ccnc(N[C@H]2CCCNC2)n1 [Example 407, (S)-4,4,4-Trifluoro-N-(6-methyl-5-((3-(2-(piperidin-3-ylamino)pyrimidin-4-yl)pyridin-2-yl)oxy)naphthalen-1-yl)but-2-enamide] | 221 nM
17 | Cc1ccc2c(NC[C@@H](C#N)C(C)C)cccc2c1Oc1ncccc1-c1ccnc(N[C@H]2CCCNC2)n1 [Example 423, (S)-3-Methyl-2-(((6-methyl-5-((3-(2-(((S)-piperidin-3-yl)amino)pyrimidin-4-yl)pyridin-2-yl)oxy)naphthalen-1-yl)amino)methyl) butanenitrile] | 207 nM
18 | Cc1c(F)c(NS(=O)(=O)CCC(F)(F)F)c2ccccc2c1Oc1ncccc1-c1ccnc(N[C@H]2CCCNC2)n1 [Example 482, (S)-3,3,3-Trifluoro-N-(2-fluoro-3-methyl-4-((3-(2-(piperidin-3-ylamino)pyrimidin-4-yl)pyridin-2-yl)oxy)naphthalen-1-yl)propane-1-sulfonamide] | 65 nM
19 | O=S(=O)(Cc1ccccc1)Nc1cccc2c(Oc3ncccc3-c3ccnc(N[C@H]4CCCNC4)n3)cccc12 [Example 452, (S)-1-Phenyl-N-(5-((3-(2-(piperidin-3-ylamino)pyrimidin-4-yl)pyridin-2-yl)oxy)naphthalen-1-yl)methanesulfonamide] | 19 nM
20 | Cc1ccc2c(NS(=O)(=O)CCC3CC3)c(F)ccc2c1Oc1ncccc1-c1ccnc(N[C@H]2CCCNC2)n1 [Example 399, (S)-2-Cyclopropyl-N-(2-fluoro-6-methyl-5-((3-(2-(piperidin-3-ylamino)pyrimidin-4-yl)pyridin-2-yl)oxy)naphthalen-1-yl)ethanesulfonamide hydrochloride] | 72 nM
21 | Cc1ccc2c(NS(=O)(=O)CCC(F)F)c(F)ccc2c1Oc1ncccc1-c1ccnc(N[C@@H]2CNC[C@H](C)C2)n1 [Example 472, 3,3-Difluoro-N-(2-fluoro-6-methyl-5-((3-(2-(((3S,5R)-5-methylpiperidin-3-yl)amino)pyrimidin-4-yl)pyridin-2-yl)oxy)naphthalen-1-yl)propane-1-sulfonamide] | 8 nM
22 | Cc1nc(CS(=O)(=O)Nc2c(F)ccc3c(Oc4ncccc4-c4ccnc(N[C@H]5CCCNC5)n4)c(C)ccc23)cs1 [Example 411, (S)—N-(2-Fluoro-6-methyl-5-((3-(2-(piperidin-3-ylamino)pyrimidin-4-yl)pyridin-2-yl)oxy)naphthalen-1-yl)-1-(2-methylthiazol-4-yl)methanesulfonamide hydrochloride] | 12 nM
23 | Cc1ccc2c(NC[C@@H](C)C#N)cccc2c1Oc1ncccc1-c1ccnc(N[C@H]2CCCNC2)n1 (single isomer, unassigned) [Example 414, hydrochloride] | 59 nM
